Measurements taken from publication PMC11996864, “A small-molecule inhibitor of BCL10-MALT1 interaction abrogates progression of diffuse large B cell lymphoma” (The Journal of Clinical Investigation, 2025).
Where two headings read alike, the source gives them in different places.

Experiment: In vivo pharmacokinetics, plasma LC-MS/MS
Experimental: Pharmacokinetic and cytochrome P450 inhibition studies. Studies were performed with the assistance of Touchstone Biosciences (Plymouth Meeting, Pennsylvania). For pharmacokinetic bioanalysis, male CD-1 mice were fasted overnight before being dosed with M1i-124 via oral gavage (20mg/kg), intraperitoneal injection in the lower right quadrant of the abdomen (20 mg/kg), or intravenous tail vein injection (5 mg/kg). All blood samples were taken via tail vein at 5, 15, and 30 minutes, and 1, 2, 4, 6, 8, and 24 hours after compound administration. The plasma concentration of the compound was determined using LC-MS/MS analysis. […]

[1] = male, CD-1, mouse, in vivo, iv, 5 mg/kg, IV, read-out: Plasma concentration (IV)
[2] = male, CD-1, mouse, in vivo, po, 20 mg/kg, PO, read-out: Plasma concentration (PO)
[3] = male, CD-1, mouse, plasma, ip, 20 mg/kg, IP, read-out: Plasma concentration (IP)
[4] = male, CD-1, mouse, plasma, iv, 5 mg/kg, IV, read-out: Plasma concentration (IV)
[5] = male, CD-1, mouse, plasma, po, 20 mg/kg, PO, read-out: Plasma concentration (PO)

`O=S(=O)(NCc1ccc2c(c1)OCO2)c1ccc(Cc2ccc(S(=O)(=O)NCc3ccc4c(c3)OCO4)cc2)cc1` [M1i-124] showed a concentration at 24 h (male, CD-1, mouse, in vivo, ip, 20 mg/kg, IP, 24 hours, read-out: Plasma concentration (IP)) of 7.17 ng/mL, a concentration at 0.5 h [1] of 412 ng/mL and a concentration at 4 h [1] of 20.4 ng/mL. It also gave a concentration at 8 h [1] of 10.9 ng/mL, a concentration at 0.5 h [2] of 42.6 ng/mL and a concentration at 4 h [2] of 15.4 ng/mL. The concentration at 0.083 h [3] was 451 ng/mL, the concentration at 0.25 h [3] was 509 ng/mL and the concentration at 0.5 h [3] was 596 ng/mL. It also gave a concentration at 1 h [3] of 349 ng/mL, a concentration at 2 h [3] of 259 ng/mL and a concentration at 4 h [3] of 126 ng/mL. For the same compound, the concentration at 6 h [3] was 75.3 ng/mL, the concentration at 8 h [3] was 53.2 ng/mL and the concentration at 24 h (male, CD-1, mouse, plasma, ip, 20 mg/kg, IP, 24 hours, read-out: Plasma concentration (IP)) was 9.14 ng/mL. It also gave a Cmax (male, CD-1, mouse, plasma, ip, mice, 20 mg/kg i.p., read-out: mean peak plasma concentration (Cmax)) of 681 ng/mL, a half-life (male, CD-1, mouse, plasma, ip, mice, 20 mg/kg i.p., read-out: t1/2 (converted)) of 6.33 h and a concentration at 0.083 h [4] of 2070 ng/mL. For the same compound, the concentration at 0.25 h [4] was 1200 ng/mL, the concentration at 0.5 h [4] was 361 ng/mL and the concentration at 1 h [4] was 122 ng/mL. It also gave a concentration at 2 h [4] of 24.3 ng/mL, a concentration at 4 h [4] of 13.4 ng/mL and a concentration at 6 h [4] of 11.6 ng/mL. The concentration at 8 h [4] was 8.84 ng/mL, the concentration at 24 h (male, CD-1, mouse, plasma, iv, 5 mg/kg, IV, 24 hours, read-out: Plasma concentration (IV)) was 2.62 ng/mL and the C0 (male, CD-1, mouse, plasma, iv, mice, 5 mg/kg i.v., read-out: mean initial plasma concentration) was 1860 ng/mL. It also gave a Vd (male, CD-1, mouse, plasma, iv, mice, 5 mg/kg i.v., read-out: steady-state volume of distribution (Vss)) of 15.4 L/kg, a clearance (male, CD-1, mouse, plasma, iv, mice, 5 mg/kg i.v., read-out: systemic clearance) of 77.9 mL/min/kg and a half-life (male, CD-1, mouse, plasma, iv, mice, 5 mg/kg i.v., read-out: terminal half-life (t1/2) (converted)) of 8.72 h. It also gave a concentration at 0.083 h [5] of 310 ng/mL, a concentration at 0.25 h [5] of 78.2 ng/mL and a concentration at 0.5 h [5] of 35.8 ng/mL. For the same compound, the concentration at 1 h [5] was 22.5 ng/mL, the concentration at 2 h [5] was 17.7 ng/mL and the concentration at 4 h [5] was 11.5 ng/mL. The concentration at 6 h [5] was 13.1 ng/mL, the concentration at 8 h [5] was 11.7 ng/mL and the concentration at 24 h (male, CD-1, mouse, plasma, po, 20 mg/kg, PO, 24 hours, read-out: Plasma concentration (PO)) was 3.18 ng/mL. For the same compound, the half-life (male, CD-1, mouse, plasma, po, mice, 20 mg/kg p.o., read-out: t1/2 (converted)) was 8.76 h, the Cmax (male, CD-1, mouse, plasma, mice, 20 mg/kg oral, read-out: Cmax) was 294 ng/mL and the “adverse clinical signs during PK studies” value (mice, 24 hours, result in words) was “No adverse clinical signs were observed”.
